Measurements taken from ChEMBL document CHEMBL3885861, “Open TG-GATES”.

Organism: Rattus norvegicus
Assay: Open TG-GATES - Regimen: Daily Repeat
Assay type: toxicity, organism-based, Sprague-Dawley
Design: regimen Daily Repeat, gender Male, age 6 weeks
Conditions: in vivo, po, route gavage; for gamma-GTP / ALP / ALT / AST / BUN / CRE / Ca / Cl / DBIL / GLC / IP / K / LDH / Na / PL / RALB / TBIL / TC / TG / TP: tissue Plasma; for APTT / Bas / Eos / Fbg / Ht / Lym / MCH / MCHC / MCV / Mono / Neu / PT / Plat / RBC / Ret / WBC: tissue Blood; for KIDNEY_L / KIDNEY_R / KIDNEY_TOTAL: tissue Kidney; for LIVER: tissue Liver
[1] = 100 mg/kg, 72 h, dose level High, time 3 day
[2] = 100 mg/kg, […], dose level High, time 7 day
[3] = 100 mg/kg, […], dose level High, time 14 day
[4] = 100 mg/kg, […], dose level High, time 28 day

`Cc1cccc(Nc2cc(Cl)nc(SCC(=O)O)n2)c1C` [PIRINIXIC ACID] was tested. Which gamma-GTP (30 mg/kg, […], dose level Middle, time 28 day) did it give?
The gamma-GTP was 1.2 IU/L.

And the TERMINAL_BW [1]?
The TERMINAL_BW was 236.1 g.

And the APTT [1]?
Its APTT is 16.4 s.

And the Bas [1]?
Its Bas is 0%.

What about the Eos [1] of the same molecule?
The Eos was 1%.

And the Fbg [1]?
Its Fbg is 210.2 mg/dL.

And the Ht [1]?
The Ht was 39.4%.

And the Lym [1]?
The Lym was 73.4%.

And the MCH [1]?
The MCH was 21.2 pg.

And the MCHC [1]?
Its MCHC is 34%.

And the MCV [1]?
Its MCV is 62.5 fL.

And the Mono [1]?
The Mono was 3%.

And the Neu [1]?
Its Neu is 22%.

What about the PT [1] of the same molecule?
Its PT is 12.2 s.

What about the Plat [1] of the same molecule?
Its Plat is 112.9 x10_4/uL.

And the RBC [1]?
The RBC was 630.2 x10_4/ul.

What about the Ret [1] of the same molecule?
The Ret was 5.7%.

And the WBC [1]?
Its WBC is 78.7 x10_2/uL.

What about the KIDNEY_L [1] of the same molecule?
The KIDNEY_L was 1.1 g.

What about the KIDNEY_R [1] of the same molecule?
Its KIDNEY_R is 1.1 g.

What about the KIDNEY_TOTAL [1] of the same molecule?
The KIDNEY_TOTAL was 2.1 g.

What about the LIVER [1] of the same molecule?
Its LIVER is 16.9 g.

And the ALP [1]?
The ALP was 1976.4 IU/L.

What about the ALT [1] of the same molecule?
Its ALT is 70.6 IU/L.

And the AST [1]?
The AST was 103.4 IU/L.

And the BUN [1]?
Its BUN is 15.8 mg/dL.

What about the CRE [1] of the same molecule?
Its CRE is 0.2 mg/dL.

What about the Ca [1] of the same molecule?
The Ca was 10.8 mg/dL.

And the Cl [1]?
Its Cl is 105.2 meq/L.

And the DBIL [1]?
The DBIL was 0.022 mg/dL.

What about the GLC [1] of the same molecule?
Its GLC is 192.2 mg/dL.

And the IP [1]?
Its IP is 7.3 mg/dL.

What about the K [1] of the same molecule?
Its K is 4.1 meq/L.

What about the LDH [1] of the same molecule?
The LDH was 189.6 IU/L.

What about the Na [1] of the same molecule?
The Na was 144 meq/L.

And the PL [1]?
Its PL is 116 mg/dL.

And the RALB [1]?
The RALB was 2.7 g/dL.

What about the TBIL [1] of the same molecule?
Its TBIL is 0.028 mg/dL.

And the TC [1]?
The TC was 59 mg/dL.

What about the TG [1] of the same molecule?
Its TG is 34 mg/dL.

What about the TP [1] of the same molecule?
Its TP is 5.4 g/dL.

And the gamma-GTP [1]?
The gamma-GTP was 1 IU/L.

What about the TERMINAL_BW [2] of the same molecule?
Its TERMINAL_BW is 275.8 g.

What about the TERMINAL_BW [3] of the same molecule?
The TERMINAL_BW was 297.8 g.

And the TERMINAL_BW [4]?
The TERMINAL_BW was 351.6 g.

And the APTT [2]?
The APTT was 15.4 s.

What about the Bas [2] of the same molecule?
The Bas was 0%.

What about the Eos [2] of the same molecule?
The Eos was 0.8%.

And the Fbg [2]?
Its Fbg is 225 mg/dL.

And the Ht [2]?
Its Ht is 36.2%.

And the Lym [2]?
The Lym was 76.6%.

And the MCH [2]?
Its MCH is 21.4 pg.

What about the MCHC [2] of the same molecule?
Its MCHC is 34.3%.

And the MCV [2]?
Its MCV is 62.4 fL.

And the Mono [2]?
Its Mono is 3.2%.

And the Neu [2]?
The Neu was 19%.

What about the PT [2] of the same molecule?
Its PT is 12.5 s.

And the Plat [2]?
Its Plat is 129.5 x10_4/uL.

What about the RBC [2] of the same molecule?
The RBC was 580.4 x10_4/ul.

What about the Ret [2] of the same molecule?
Its Ret is 5.9%.

What about the WBC [2] of the same molecule?
Its WBC is 116.4 x10_2/uL.

And the APTT [3]?
The APTT was 17.3 s.

What about the Bas [3] of the same molecule?
Its Bas is 0%.

What about the Eos [3] of the same molecule?
The Eos was 0.8%.

What about the Fbg [3] of the same molecule?
The Fbg was 207 mg/dL.

And the Ht [3]?
Its Ht is 38.8%.

And the Lym [3]?
The Lym was 75.4%.

What about the MCH [3] of the same molecule?
Its MCH is 20.3 pg.

What about the MCHC [3] of the same molecule?
The MCHC was 34.6%.

What about the MCV [3] of the same molecule?
The MCV was 58.7 fL.

What about the Mono [3] of the same molecule?
The Mono was 3.6%.

What about the Neu [3] of the same molecule?
The Neu was 19.4%.

What about the PT [3] of the same molecule?
The PT was 12.9 s.

And the Plat [3]?
The Plat was 121.9 x10_4/uL.

What about the RBC [3] of the same molecule?
Its RBC is 661.2 x10_4/ul.

And the Ret [3]?
The Ret was 4.3%.

And the WBC [3]?
The WBC was 147.9 x10_2/uL.

What about the APTT [4] of the same molecule?
Its APTT is 16.6 s.

And the Bas [4]?
The Bas was 0%.

And the Eos [4]?
The Eos was 1.2%.

What about the Fbg [4] of the same molecule?
Its Fbg is 216.6 mg/dL.

And the Ht [4]?
The Ht was 39.4%.

What about the Lym [4] of the same molecule?
The Lym was 74.2%.

And the MCH [4]?
Its MCH is 18.8 pg.

What about the MCHC [4] of the same molecule?
The MCHC was 35%.

And the MCV [4]?
The MCV was 53.7 fL.

What about the Mono [4] of the same molecule?
Its Mono is 4%.

What about the Neu [4] of the same molecule?
The Neu was 19.6%.

What about the PT [4] of the same molecule?
The PT was 12.4 s.

What about the RBC [4] of the same molecule?
The RBC was 734.2 x10_4/ul.

And the Ret [4]?
Its Ret is 2.5%.

What about the WBC [4] of the same molecule?
Its WBC is 118.8 x10_2/uL.

And the KIDNEY_L [2]?
The KIDNEY_L was 1.2 g.

And the KIDNEY_R [2]?
Its KIDNEY_R is 1.2 g.

What about the KIDNEY_TOTAL [2] of the same molecule?
The KIDNEY_TOTAL was 2.3 g.

What about the KIDNEY_L [3] of the same molecule?
Its KIDNEY_L is 1.3 g.

And the KIDNEY_R [3]?
Its KIDNEY_R is 1.3 g.

And the KIDNEY_TOTAL [3]?
The KIDNEY_TOTAL was 2.6 g.

What about the KIDNEY_L [4] of the same molecule?
The KIDNEY_L was 1.6 g.

What about the KIDNEY_R [4] of the same molecule?
Its KIDNEY_R is 1.6 g.

And the KIDNEY_TOTAL [4]?
The KIDNEY_TOTAL was 3.1 g.

And the LIVER [2]?
Its LIVER is 24.1 g.

And the LIVER [3]?
The LIVER was 26.1 g.

And the LIVER [4]?
The LIVER was 30.8 g.

What about the ALP [2] of the same molecule?
The ALP was 1688.2 IU/L.

And the ALT [2]?
Its ALT is 46.4 IU/L.

And the AST [2]?
Its AST is 66.4 IU/L.

And the BUN [2]?
The BUN was 18.8 mg/dL.

What about the CRE [2] of the same molecule?
Its CRE is 0.2 mg/dL.

And the Ca [2]?
The Ca was 11.3 mg/dL.

And the Cl [2]?
The Cl was 102.8 meq/L.

What about the DBIL [2] of the same molecule?
Its DBIL is 0.014 mg/dL.

And the GLC [2]?
The GLC was 201.8 mg/dL.

What about the IP [2] of the same molecule?
Its IP is 7.4 mg/dL.

And the K [2]?
The K was 4 meq/L.

And the LDH [2]?
The LDH was 142 IU/L.

And the Na [2]?
Its Na is 142 meq/L.

And the PL [2]?
Its PL is 143 mg/dL.

What about the RALB [2] of the same molecule?
The RALB was 3 g/dL.

And the TBIL [2]?
Its TBIL is 0.026 mg/dL.

What about the TC [2] of the same molecule?
Its TC is 69.4 mg/dL.

What about the TG [2] of the same molecule?
Its TG is 52 mg/dL.

What about the TP [2] of the same molecule?
The TP was 6.1 g/dL.

What about the gamma-GTP [2] of the same molecule?
The gamma-GTP was 0.6 IU/L.

And the ALP [3]?
Its ALP is 1872.4 IU/L.

What about the ALT [3] of the same molecule?
Its ALT is 49.6 IU/L.

What about the AST [3] of the same molecule?
Its AST is 75 IU/L.

And the BUN [3]?
The BUN was 19.4 mg/dL.

And the CRE [3]?
Its CRE is 0.2 mg/dL.

What about the Ca [3] of the same molecule?
The Ca was 10.4 mg/dL.

And the Cl [3]?
Its Cl is 102.8 meq/L.

What about the DBIL [3] of the same molecule?
Its DBIL is 0.022 mg/dL.

And the GLC [3]?
Its GLC is 189.6 mg/dL.

And the IP [3]?
The IP was 7.1 mg/dL.

What about the K [3] of the same molecule?
Its K is 3.8 meq/L.

What about the LDH [3] of the same molecule?
The LDH was 141 IU/L.

And the Na [3]?
Its Na is 141.8 meq/L.

What about the PL [3] of the same molecule?
The PL was 149.6 mg/dL.

And the RALB [3]?
The RALB was 2.9 g/dL.

What about the TBIL [3] of the same molecule?
Its TBIL is 0.032 mg/dL.

What about the TC [3] of the same molecule?
Its TC is 74.8 mg/dL.

And the TG [3]?
Its TG is 44.4 mg/dL.

What about the TP [3] of the same molecule?
Its TP is 6.1 g/dL.

And the gamma-GTP [3]?
The gamma-GTP was 1.2 IU/L.

What about the ALP [4] of the same molecule?
Its ALP is 1888.4 IU/L.

And the ALT [4]?
The ALT was 41.8 IU/L.

And the AST [4]?
The AST was 65.8 IU/L.

And the BUN [4]?
Its BUN is 17.2 mg/dL.

What about the CRE [4] of the same molecule?
Its CRE is 0.2 mg/dL.

What about the Ca [4] of the same molecule?
The Ca was 10.8 mg/dL.

What about the Cl [4] of the same molecule?
Its Cl is 102.2 meq/L.

What about the DBIL [4] of the same molecule?
The DBIL was 0.008 mg/dL.

What about the GLC [4] of the same molecule?
The GLC was 189.2 mg/dL.

And the IP [4]?
The IP was 7.6 mg/dL.

What about the K [4] of the same molecule?
The K was 3.7 meq/L.

And the LDH [4]?
Its LDH is 109 IU/L.

And the Na [4]?
The Na was 141.8 meq/L.

What about the PL [4] of the same molecule?
The PL was 147.4 mg/dL.

What about the RALB [4] of the same molecule?
Its RALB is 3 g/dL.

What about the TBIL [4] of the same molecule?
The TBIL was 0.048 mg/dL.

And the TC [4]?
The TC was 80 mg/dL.

And the TG [4]?
Its TG is 43.6 mg/dL.

And the TP [4]?
Its TP is 6.6 g/dL.

And the gamma-GTP [4]?
The gamma-GTP was 1 IU/L.
